# Where a name gives a salt, the structure may show the parent alone.
# Assay: zone of inhibition (ZOI) of antimicrobial accessories
# Assay type: cell-based
# Source text: Examples 30-54 illustrate zone of inhibition (ZOI) data collected for antimicrobial accessories including minocycline HCl and/or rifampin. Various polymers and excipients were used in combination with minocycline HCl and/or rifampin. […] In Table 22, M stands for minocycline HCl, R stands for rifampin, SiO2 is silica, PVP is polyvinylpyrrolidone, BIO-PSA 7-4601 is a silicone PSA available from Dow Corning Corp, Midland, Mich., MDX4-4210 is a liquid silicone rubber available from Dow Corning, Corp., Midland, Mich., LSR Q7-4850 is a liquid silicone rubber available from Dow Corning, Corp., Midland, Mich., and MED-1137 a silicone adhesive available from NuSil Silicone Technology, Carpinteria, Calif.
row,SMILES,Average ZOI [mm]
1,"CN(C)c1ccc(O)c2c1C[C@H]1C[C@H]3[C@H](N(C)C)C(O)=C(C(N)=O)C(=O)[C@@]3(O)C(O)=C1C2=O [Example 30, minocycline HCl]",16
2,"CO[C@H]1/C=C/O[C@@]2(C)Oc3c(C)c(O)c4c(O)c(c(/C=N/N5CCN(C)CC5)c(O)c4c3C2=O)NC(=O)/C(C)=C\C=C\[C@H](C)[C@H](O)[C@@H](C)[C@@H](O)[C@@H](C)[C@H](OC(C)=O)[C@@H]1C [Example 31, rifampin]",17

# — patent US20150110849A1, “ANTIMICROBIAL ACCESSORY FOR AN IMPLANTABLE MEDICAL DEVICE” (Medtronic, Inc., priority 2009, published 2015)
